The results in this text go back to patent US10980808B2, “Calmodulin inhibitors, Chk2 inhibitors and RSK inhibitors for the treatment of ribosomal disorders and ribosomapathies” (THE CHILDREN'S MEDICAL CENTER CORPORATION, priority 2016, dated 2021).

“Also recorded” adds a separate entry of the source.

The subject of data set [1] is rps29−/− zebrafish embryos. Kind of data set: hemoglobin (benzidine staining) rescue in rps29-/- zebrafish embryos. The settings on record: for hemoglobin (Hb) in rps29−/− embryos: benzidine staining; for Hb increase at low concentrations: rps29−/− embryos, compared with positive control fluphenazine / with DB-4-089. The format is in vivo.
The test system of data set [2] is RPS19 shRNA CD34+ peripheral blood mononuclear cells. Kind of data set: primary human in vitro differentiation model of DBA: CD34+ PBMCs with RPS19 shRNA, CD71+ flow cytometry. The class given is cell-based. The settings on record: treated once for 5 days. From the text: FIG. 40 is a schematic of the testing of novel phenothiazine derivatives in a human in vitro model of DBA. Primary human peripheral blood mononuclear cells (PBMCs) are transduced with RPS19-GFP shRNA to make a ribiosomal protein deficiency. Cells are transferred to eyrthroid differentiation media and treated once for 5 days with Drug. Cells are harvested and analyzed for erythroid precursors by flow cytomety for CD71^+ cells.
We next tested three derivatives in our primary human in vitro differentiation model of DBA. To do this we expanded CD34+ peripheral blood mononuclear cells in culture for 2 days and induced ribosomal protein deficiency with a lentirvirus containing RPS19 shRNA (FIG. 40). After 3 days the cells are placed into erythroid differentiation media with or without the novel derivatives and cultured for 5 days. Erythroid differentiation is then assessed by flow cytometry analysis for the transferrin receptor, CD71+. […] In addition, the novel derivatives increased the absolute erythroid number compared to DMSO treated (FIG. 41). […] A table summarizing the activity of the compounds is found in FIG. 43.

The test system of data set [3] is rps29−/− zebrafish embryos. Kind of data set: chemical screen: rescue of morphological, hematopoietic and endothelial defects of rps29-/- embryo. The format is in vivo.
Data set [4] deals with 6 dpf WT zebrafish. Kind of data set: zebrafish behavior tracking (proxy for BBB permeation). The settings on record: for zebrafish movement / swimming behavior vs DMSO: 6 dpf, drug in fish water, tracked 1-2 h.
Data set [5] concerns p53 phosphorylation in 293T cells. Kind of data set: mass spectrometry of p53 post-translational modifications in 293T cells. The class given is cell-based. The following applies: 3 hours; for percentage of peptides containing phosphorylated serine 392 of p53: WT-p53-GFP. As for the experimental part: FIGS. 10A to 10C show schematics, graphs and gels that indicate CaM and Chk2 inhibitors reduce S392 phosphorylation. FIG. 10A is a schematic of conserved regulatory region phosphorylation sites. FIG. 10B are graphs of an unbiased mass spectrometry analysis looking for post-translational modifications of p53 altered in the presence of the CaM inhibitor TFP or the Chk2 inhibitor, BML. 293T cells were transfected with WT-p53 tagged with GFP and treated with TFP or BML for 3 hours. P53 was immunoprecipitated using an antibody against GFP and was submitted for mass spec analysis. […] By two different mass spec methods, either conventional mass spec or by TMT tagging of the peptide we found in both cases the percentage of peptides containing phosphorylated serine 392 was reduced in TFP and BML treated samples (FIG. 10B). It was also noted that this serine is conserved in both zebrafish and mouse (FIG. 10A). FIG. 10C is a Western Blot that indicates phosphorylation decrease.

Data set [6] relates to 293T cells with RPS19 shRNA. The data set is described as follows: phosphorylation in 293T cells with RPS19 shRNA. The format is cell-based, human. The settings on record: for phosphorylation of p70S6K: during ribosomal protein deficiency. The text has this:
FIGS. 17A to 17C are scehmatics and gels that indicate CaM and Chk2 inhibitors block phosphorylation of p70S6K selectively during RP deficiency. FIG. 17A schematic, we used 293T cells, and induced ribosomal protein deficiency using shRNA for RPS19 or Luc for control. […] ERK phosphorylation is increased by these inhibitors, which is also seen with RSK inhibitors. FIG. 17C a gel of the effect of Luc and […] shRNA on phosphorylated S392. […] RSK inhibitors increase ERK phosphorylation through a negative feedback loop. So TFP and BML similarly affect ERK in the same manner.

The target in data set [7] is p70S6K (Homo sapiens, UniProt P23443). The data set is described as follows: in vitro kinase profiling (Thermo Fisher SelectScreen), p70S6K. The class given is biochemical. The text has this:
We asked if CaM and Chk2 inhibitors are blocking specific kinases. The known kinases that phosphorylate S392 are CK2 and p38. […] Thus, the question became what is TFP inhibiting upstream? Is it inhibiting a kinase that phosphorylates S392? We submitted CaM and Chk2 inhibitors for Kinase profiling using Thermo Fisher's SelectScreen.

The subject of data set [8] is p53 in Saos2 cells. The data set is described as follows: p53 activity in Saos2 cells transfected with p53 constructs (qPCR). The class given is cell-based. How it is done: FIG. 9A a schematic of wild type P53 and deleted regulatory region p53 (p53 reg). FIG. 9[…] of procedure. Saos2 cells (p53-null cells) transiently transfected with p53 constructs and were treated with vehicle or 20 μM TFP for 24 hours. TFP activity on p53 was assessed by the ability of TFP to reduce p21 mRNA levels measured by qPCR. FIG. 9C is a graph of p21 RNA expression. Since our compound decreases p53 activity, we wanted to determine the region of p53 is responsible for CaM inhibitor activity. […] Next, the c-terminal 30 amino acids from p53 (363-393) were removed. This construct is p53-reg. […] FIGS. 11A to 11C are schematics and graphs which indicate that p53 S392 phhosphomimetic prevents TFP from reducing p53 activity. To confirm the importance of the ability of CaM inhibitors to block the phosphorylation of p53, we created phosphomimetic p53 by replacing […], which mimics constitutive phosphorylation. We also generated a control phosphomimetic p53 where […]. This mutant should have no effect on the ability of TFP to reduce p53 activity. FIG. 11A is a schematic of experiment used to test these mutants, we transiently transfected, WT p53, […] and […] into Saos2 cells and treated them with vehicle or TFP. To assess p53 activity, we examined p21 and MDM2 mRNA levels. FIG. 11B is a graph of p21 Expression. FIG. 11C is a graph of MDM2 mRNA expression. […] Confirming that blocking the S392 phosphorylation is important for the activity of TFP.
In general terms: Quantitative PCR measures a nucleic acid by following its amplification.

Data set [9] relates to Rps19 deficient mice. The data set is described as follows: DBA dox-inducible RPS19 knockdown mouse model. The class given is in vivo. The settings on record: treated every other day for 2 weeks.
The test system of data set [10] is RPS19 deficient cord blood derived CD34+ cells. The data set is described as follows: human in vitro model of DBA: cord blood CD34+ cells with RPS19 shRNA, erythroid differentiation. The class given is cell-based.
The subject of data set [11] is RPS19 deficient CD34 cells. The data set is described as follows: phosphorylation in RPS19 deficient CD34 cells. The class given is cell-based, human. The text has this: FIG. 18 is a schematic of the assay of RSK activation in human cells. The most relevant in vitro model in the blood field is primary human cells-such as Peripheral blood mononuclear cells (PBMCs). […] FIG. 19B schematic ov RP deficiency. TFP treatment reduces P-RPS6 and P-p53 […] and p53 total levels.

[12] abbreviates: Saos2 cells with WT p53 or S15D p53.

p70S6K, sequence (P23443 whole entry): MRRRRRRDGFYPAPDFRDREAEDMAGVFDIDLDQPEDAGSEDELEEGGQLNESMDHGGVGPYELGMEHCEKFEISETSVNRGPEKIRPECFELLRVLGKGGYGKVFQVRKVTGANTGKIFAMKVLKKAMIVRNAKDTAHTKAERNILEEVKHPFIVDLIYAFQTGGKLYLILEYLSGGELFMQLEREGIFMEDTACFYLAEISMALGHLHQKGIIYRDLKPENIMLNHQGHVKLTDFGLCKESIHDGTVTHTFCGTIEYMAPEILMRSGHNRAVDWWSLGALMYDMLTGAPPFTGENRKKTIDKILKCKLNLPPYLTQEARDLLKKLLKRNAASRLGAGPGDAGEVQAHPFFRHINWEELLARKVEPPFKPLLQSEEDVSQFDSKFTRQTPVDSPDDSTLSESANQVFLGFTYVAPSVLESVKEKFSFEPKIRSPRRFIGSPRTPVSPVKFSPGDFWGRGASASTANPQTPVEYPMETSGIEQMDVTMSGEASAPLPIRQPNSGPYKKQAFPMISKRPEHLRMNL

In the case of `NCCCCCCNS(=O)(=O)c1cccc2c(Cl)cccc12` [W-7], the “hemoglobin (Hb) in rps29−/− embryos” value in data set [1] was “rescue Hb”.

With `CC(C)N(CCCN1c2ccccc2Sc2ccc(Cl)cc21)CCCN1c2ccccc2Sc2ccc(Cl)cc21` [088-2], the “percentage of erythroid precursor cells (CD71+) compared to DMSO” value in data set [2] is on record as “increased the percentage of erythroid precursor cells”. Also, the “Hb increase at low concentrations” value in data set [1] is “increase Hb at lower concentrations than the positive control phenothiazine”. The “rescuing morphological defects and hematopoietic and endothelial defects” value in data set [3] is given as “work particularly well”.

For the molecule `CN1CCC(N(CCCN2c3ccccc3Sc3ccc(Cl)cc32)CCCN2c3ccccc3Sc3ccc(Cl)cc32)CC1` [compound 089], the “percentage of erythroid precursor cells (CD71+) compared to DMSO” value in data set [2] was “increased the percentage of erythroid precursor cells”; in [2] (listed as DB-4-089), “increased eyrthroid differentiation”. Besides, the “Hb increase at low concentrations” value in data set [1] was “increase Hb at lower concentrations than the positive control phenothiazine”; in data set [1] (listed as DB-4-089), “increased Hb at low concentrations”. Further, the “zebrafish movement / swimming behavior vs DMSO” value in data set [4] is given as “altered behavior; also recorded: alters movement”. In addition, the “toxicity in behavior assay” value in data set [4] (highest dose) is on record as “toxic at the highest dose”. Also, the “rescuing morphological defects and hematopoietic and endothelial defects” value in data set [3] is “work particularly well”.

For the molecule `Clc1ccc2c(c1)N(CCCN1CCOCC1)c1ccccc1S2` [compound 086], in data set [1], the “Hb increase at low concentrations” value is on record as “did not increase Hb at the same low concentrations”.

As to `CCc1cncnc1N1CCN(Cc2nc3cc(C(F)(F)F)ccc3[nH]2)CC1` [PF, 2-[[4-(5-Ethylpyrimidin-4-yl)piperazin-1-yl]methyl]-5-(trifluoromethyl)-1H-benzo[d]imidazole], the “hemoglobin (Hb) in rps29−/− embryos” value in data set [1] is “increase Hb”.

`Clc1ccc2c(c1)N(CCCN1CCCCC1)c1ccccc1S2` [compound 084]: the “Hb increase at low concentrations” value in data set [1] is listed as “did not increase Hb at the same low concentrations”.

As to `O=C(O)CCC(=O)NCCN1CCN(CCCN2c3ccccc3Sc3ccc(Cl)cc32)CC1` [PerSucc], the “hemoglobin (Hb) in rps29−/− embryos” value in data set [1] is recorded as “dramatic rescue of Hb expression; also recorded: increase Hb”. For the same molecule, the “zebrafish movement / swimming behavior vs DMSO” value in data set [4] was “less active and rest more than DMSO treated fish”. For the same molecule, the “rescuing morphological defects and hematopoietic and endothelial defects” value in [3] is on record as “work particularly well”.

For the molecule `CC(C)(C)OC(=O)CCN1CCN(CCCN2c3ccccc3Sc3ccc(Cl)cc32)CC1` [compound 083], the “Hb increase at low concentrations” value in data set [1] is recorded as “did not increase Hb at the same low concentrations”.

As to `NC(=O)c1ccc2nc(-c3ccc(Oc4ccc(Cl)cc4)cc3)[nH]c2c1` [BML], in data set [5], the “percentage of peptides containing phosphorylated Serine 6 of p53” value is given as “did not change”, the “percentage of peptides containing phosphorylated Serine 315 of p53” value is on record as “did not change” and the “percentage of peptides containing phosphorylated serine 392 of p53” value was “reduced”. Moreover, in data set [6], the ERK phosphorylation result is “increased” and the “phosphorylation of p70S6K” value is on record as “selectively inhibited”.

With `NCCNS(=O)(=O)c1cccc2c(Cl)cccc12` [A-3], the “hemoglobin (Hb) in rps29−/− embryos” value in data set [1] is “rescue Hb”.

For the molecule `OCCN1CCN(CCCN2c3ccccc3Sc3ccc(C(F)(F)F)cc32)CC1` [FLU, fluphenazine], the “hemoglobin (Hb) in rps29−/− embryos” value in data set [1] is “rescues better than either RSK or p70S6K inhibitor alone”; in [1] (listed as fluphenazine), “increase Hb”.

For `NC1=N/C(=C2/CCNC(=O)c3cc4[nH]c5ccccc5c4cc32)C(=O)N1` [III], the “hemoglobin (Hb) in rps29−/− embryos” value in [1] is listed as “Resues Hb; also recorded: rescue Hb”. In addition, the “percent inhibition of in vitro kinase activity, p70S6K” value in [7] is “inhibition”.

For `Clc1ccc2c(c1)N(CCCN1CCN(CCNCCCOCCOCCOCCCNC(c3ccccc3)(c3ccccc3)c3ccccc3)CC1)c1ccccc1S2` [221E], the “zebrafish movement / swimming behavior vs DMSO” value in [4] is reported as “more erratic activity”.

Turning to `CN1CCN(CCCN2c3ccccc3Sc3ccc(C(F)(F)F)cc32)CC1` [TFP, trifluoperazine], in data set [5], the “percentage of peptides containing phosphorylated Serine 6 of p53” value is reported as “did not change”, the “percentage of peptides containing phosphorylated Serine 315 of p53” value is given as “did not change” and the “percentage of peptides containing phosphorylated serine 392 of p53” value was “reduced”. Further, the “ability of p53 to form a tetramer” value in data set [8] is given as “did not inhibit”. For the same molecule, in data set [8] (setting [12]), the “MDM2 mRNA levels” value is given as “able to reduce” and the “p21 mRNA levels” value is “able to reduce”. Also, in [8] (Saos2 cells with p53 S392D), the “MDM2 mRNA levels” value was “unable to reduce” and the “p21 mRNA levels” value is given as “unable to reduce”. In addition, in [9], the hemoglobin levels entry is listed as “significantly increases”, the “p21 mRNA levels (p53 activity) in bone marrow” value is listed as “reduced; also recorded: decreases” and the “red blood cell number” value was “significantly increases”. Further, the “hemoglobin (Hb) in rps29−/− embryos” value in data set [1] is “rescue Hb”. Further, in [10], the “% erythroid precursor cells (CD71+) on day 12” value was “increases” and the “p21 mRNA levels” value was “dose dependently decreases”. In data set [11], the P-RPS6 result is on record as “reduces”, the “P-p53 S392” value was “reduces” and the p53 total levels result is on record as “reduces”. Besides, in data set [6], the ERK phosphorylation result is “increased” and the “phosphorylation of p70S6K” value is listed as “selectively inhibited”.

With `CC(C)NCCCN1c2ccccc2Sc2ccc(Cl)cc21` [088-3], in data set [1], the “Hb increase at low concentrations” value is “increase Hb at lower concentrations than the positive control phenothiazine”. Also, in [3], the “rescuing morphological defects and hematopoietic and endothelial defects” value is “work particularly well”.

As for `OCCN1CCN(CCCN2c3ccccc3Sc3ccc(Cl)cc32)CC1` [perphenizine], the “hemoglobin (Hb) in rps29−/− embryos” value in data set [1] is “increase Hb”.
